Source: PMC9525273 (Nature Communications, 2022)
Where “and” joins values, the source holds several entries; their conditions need not be identical. Equal entries are not always repeated. Where two headings read alike, the source gives them in different places.

Tests used:
[1] = target: T1, PfATP4^G358S (membranes from Dd2-Polδ-PfATP4^G358S parasites) (Plasmodium falciparum, UniProt A0A143ZZK9, G358S); assay: Membrane ATPase assay, ATP4-associated (Na+-dependent) ATPase activity; assay type: biochemical; conditions: Dd2-Polδ-PfATP4G358S
T1 sequence (A0A143ZZK9 1-1264 G358S): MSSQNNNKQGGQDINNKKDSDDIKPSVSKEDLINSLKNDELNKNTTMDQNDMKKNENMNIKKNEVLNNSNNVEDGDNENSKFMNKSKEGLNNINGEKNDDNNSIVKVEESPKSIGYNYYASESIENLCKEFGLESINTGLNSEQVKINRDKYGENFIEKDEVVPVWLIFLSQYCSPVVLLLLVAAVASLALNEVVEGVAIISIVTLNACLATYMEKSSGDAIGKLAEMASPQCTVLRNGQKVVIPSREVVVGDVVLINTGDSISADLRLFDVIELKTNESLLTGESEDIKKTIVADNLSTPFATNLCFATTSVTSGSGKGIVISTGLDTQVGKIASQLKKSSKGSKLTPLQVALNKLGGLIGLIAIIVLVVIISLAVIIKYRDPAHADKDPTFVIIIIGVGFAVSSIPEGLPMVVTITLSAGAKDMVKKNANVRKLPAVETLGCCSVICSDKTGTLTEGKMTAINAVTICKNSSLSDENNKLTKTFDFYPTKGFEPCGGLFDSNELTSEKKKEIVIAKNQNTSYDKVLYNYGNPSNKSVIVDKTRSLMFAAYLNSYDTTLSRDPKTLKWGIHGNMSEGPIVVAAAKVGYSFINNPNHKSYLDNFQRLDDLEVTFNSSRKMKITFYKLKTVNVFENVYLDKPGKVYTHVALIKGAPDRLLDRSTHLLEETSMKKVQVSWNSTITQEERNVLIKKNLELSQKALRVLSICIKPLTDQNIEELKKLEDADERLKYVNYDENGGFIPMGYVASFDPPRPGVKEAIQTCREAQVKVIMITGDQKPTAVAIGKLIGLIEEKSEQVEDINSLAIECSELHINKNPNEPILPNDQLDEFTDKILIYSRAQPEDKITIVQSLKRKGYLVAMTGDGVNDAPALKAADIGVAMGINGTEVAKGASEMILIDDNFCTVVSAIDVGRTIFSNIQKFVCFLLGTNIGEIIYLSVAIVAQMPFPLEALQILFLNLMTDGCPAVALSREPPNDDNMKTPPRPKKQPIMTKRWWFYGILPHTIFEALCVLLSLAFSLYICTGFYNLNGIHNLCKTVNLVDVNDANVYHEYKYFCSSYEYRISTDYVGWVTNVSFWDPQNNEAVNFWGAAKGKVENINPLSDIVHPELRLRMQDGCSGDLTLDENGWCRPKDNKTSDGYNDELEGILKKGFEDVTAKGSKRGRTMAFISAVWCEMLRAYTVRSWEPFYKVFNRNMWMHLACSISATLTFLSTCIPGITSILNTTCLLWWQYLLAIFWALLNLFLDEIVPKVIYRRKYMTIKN
Method: Membranes from isolated P. falciparum or extracellular T. gondii parasites were prepared by lysing parasites in ice-cold deionized water containing a 1:500 dilution of Protease Inhibitor Cocktail Set III (Merck Millipore), then washing the membrane preparation three times in ice-cold deionized water (with protease inhibitors present for the first two washes)[15]. Protein concentrations in the membrane preparations were measured using a Bradford assay. The PiColorLock Gold Phosphate Detection System (Innova Biosciences) was used to measure the production of Pi from hydrolysis of ATP[15]. Membrane preparations were diluted in either a high Na^+ solution (yielding final conditions in the reactions of 150 mM NaCl, 20 mM KCl, 2 mM MgCl2, 50 mM Tris, pH 7.2) or a Na^+-free solution (yielding final conditions of 150 mM choline chloride, 20 mM KCl, 2 mM MgCl2, 50 mM Tris, pH 7.2) to achieve a total protein concentration of 50 μg/mL. […] The reactions were performed at 37 °C, and were initiated by the addition of 1 mM ATP (Na2ATP۰3H2O; MP Biomedicals) and terminated 10 min later by adding 100 μL of reaction mixture (in duplicate) to 25 μL “Gold mix” in a 96-well plate. […] Background values (averaged from wells containing all components, but to which ATP was not added until after the membrane was exposed to Gold mix) were subtracted from the data. For each treatment, the ATPase activity associated with the (Na^+-dependent) PfATP4 and TgATP4 proteins was calculated by subtracting data obtained in the low Na^+ condition (containing only the 2 mM Na^+ introduced on addition of 1 mM Na2ATP) from that obtained in the high Na^+ condition.

Dd2-Polδ parasites = assay: P. falciparum proliferation assay (72 h, fluorescent DNA-intercalating dye); assay type: cell-based, Plasmodium falciparum
Method: For experiments with all other parasites, the effects of compounds of interest on parasite proliferation was measured in 96-well plates containing serial dilutions of the compounds in culture medium, with a fluorescent DNA-intercalating dye used to detect surviving parasites. The assays were initiated with erythrocytes infected with predominantly ring-stage parasites, and the starting parasitaemia and haematocrit were both 1%.

NF54^WT parasites = assay: microbe, parasite or virus in culture; assay type: cell-based, Plasmodium falciparum
Method: For the NF54-based lines and Dd2-B2-PfATP4^G358S and its parent, assays were initiated with cultures containing predominantly ring-stage parasites with a parasitaemia of 0.3% and a haematocrit of 1%. All assays using NF54 were performed in culture media containing 10% O + human serum. The duration of the assays was 72 h and the concentration of DMSO was <0.5% (v/v). Serial dilutions of the test compounds were performed using a Tecan D300e digital dispenser, with parasite cultures added manually. Parasite survival was assessed by flow cytometry on an Intellicyt iQue3 (Essen Bioscience), with 1× SYBR Green I (Invitrogen) and 200 nM MitoTracker Deep Red FM (Invitrogen) used to stain the nucleus and the mitochondria in live parasites, respectively. The gating strategy used to quantify parasite survival, performed using FlowJo version 10 (FlowJo LLC.), is illustrated in Supplementary Fig. 9. IC50 and IC90 values were calculated by linear interpolation of the dose-response data.

## N#Cc1cc(NC(=O)[C@H]2c3ccccc3C(=O)N(CC(F)(F)F)[C@@H]2c2cccnc2)ccc1F [(+)SJ733]
[1]; [(+)SJ733] 0.122 nM, MEAN
  PfATP4-associated ATPase activity (% of control): 85.0 % of control
[1]; [(+)SJ733] 0.122 nM, single experiments, 0.000122 µM
  PfATP4-associated ATPase activity (% of control): 115.8 % of control and 74.1 % of control and 65.2 % of control
[1]; [(+)SJ733] 0.244 nM, MEAN
  PfATP4-associated ATPase activity (% of control): 125.3 % of control
[1]; [(+)SJ733] 0.244 nM, single experiments, 0.000244 µM
  PfATP4-associated ATPase activity (% of control): 139.0 % of control and 119.0 % of control and 117.8 % of control
[1]; [(+)SJ733] 0.5 nM, MEAN
  PfATP4-associated ATPase activity (% of control): 90.2 % of control
[1]; [(+)SJ733] 0.5 nM, single experiments, 0.0005 µM
  PfATP4-associated ATPase activity (% of control): 95.6 % of control and 76.4 % of control and 98.6 % of control
[1]; [(+)SJ733] 1.0 nM, MEAN
  PfATP4-associated ATPase activity (% of control): 98.3 % of control
[1]; [(+)SJ733] 2.0 nM, MEAN
  PfATP4-associated ATPase activity (% of control): 109.4 % of control
[1]; [(+)SJ733] 2.0 nM, single experiments, 0.002 µM
  PfATP4-associated ATPase activity (% of control): 114.6 % of control and 135.7 % of control and 77.8 % of control
[1]; [(+)SJ733] 3.9 nM, MEAN
  PfATP4-associated ATPase activity (% of control): 81.9 % of control
[1]; [(+)SJ733] 3.9 nM, single experiments, 0.0039 µM
  PfATP4-associated ATPase activity (% of control): 93.0 % of control and 73.2 % of control and 79.5 % of control
[1]; [(+)SJ733] 7.8 nM, MEAN
  PfATP4-associated ATPase activity (% of control): 84.3 % of control
[1]; [(+)SJ733] 7.8 nM, single experiments, 0.0078 µM
  PfATP4-associated ATPase activity (% of control): 82.0 % of control and 99.5 % of control and 71.2 % of control
[1]; [(+)SJ733] 15.6 nM, MEAN
  PfATP4-associated ATPase activity (% of control): 119.8 % of control
[1]; [(+)SJ733] 15.6 nM, single experiments, 0.0156 µM
  PfATP4-associated ATPase activity (% of control): 88.8 % of control and 152.3 % of control and 118.3 % of control
[1]; [(+)SJ733] 31.3 nM, MEAN
  PfATP4-associated ATPase activity (% of control): 94.2 % of control
[1]; [(+)SJ733] 31.3 nM, single experiments, 0.0313 µM
  PfATP4-associated ATPase activity (% of control): 92.0 % of control and 104.2 % of control and 86.4 % of control
[1]; [(+)SJ733] 62.5 nM, MEAN
  PfATP4-associated ATPase activity (% of control): 103.2 % of control
[1]; [(+)SJ733] 62.5 nM, single experiments, 0.0625 µM
  PfATP4-associated ATPase activity (% of control): 102.4 % of control and 79.6 % of control and 127.6 % of control
[1]; [(+)SJ733] 250 nM, MEAN
  PfATP4-associated ATPase activity (% of control): 82.2 % of control
[1]; [(+)SJ733] 250 nM, single experiments, 0.25 µM
  PfATP4-associated ATPase activity (% of control): 91.0 % of control and 86.1 % of control and 69.4 % of control
[1]; [(+)SJ733] 500 nM, MEAN
  PfATP4-associated ATPase activity (% of control): 53.9 % of control
[1]; [(+)SJ733] 1000 nM, MEAN
  PfATP4-associated ATPase activity (% of control): 56.2 % of control
[1]; [(+)SJ733] 2000 nM, MEAN
  PfATP4-associated ATPase activity (% of control): 20.4 % of control
[1]; [(+)SJ733] 4000 nM, MEAN
  PfATP4-associated ATPase activity (% of control): -1.2 % of control
[1]; [(+)SJ733] 8000 nM, MEAN
  PfATP4-associated ATPase activity (% of control): -15.8 % of control

## C[C@H]1[C@@H](O)O[C@@H]2O[C@@]3(C)CC[C@H]4[C@H](C)CC[C@@H]1[C@@]24OO3 [Dihydroartemisinin]
Dd2-Polδ parasites; Plasmodium falciparum, DD2, read-out: Dihydroartemisinin IC50 values, Dd2-Polδ, MEAN
  IC50: 2.15 nM
Dd2-Polδ parasites; Plasmodium falciparum, DD2, read-out: Dihydroartemisinin IC50 values, Dd2-Polδ, single experiments
  IC50: 2.08 nM
Dd2-Polδ parasites; read-out: Dihydroartemisinin IC50 values, Dd2-Polδ, single experiments
  IC50: 2.37 nM and 1.58 nM and 2.55 nM
NF54^WT parasites; NF54WT parasites, individual experiments, read-out: IC90 values
  IC90: 1.85 nM and 1.87 nM and 2.79 nM
NF54^WT parasites; NF54WT, reference line
  FC (IC50): 1.0 fold
  FC (IC90): 1.0 fold
NF54^WT parasites; Plasmodium falciparum, NF54, NF54WT parasites, individual experiments, read-out: IC90 values
  IC90: 2.83 nM
NF54^WT parasites; Plasmodium falciparum, NF54, NF54WT parasites, mean of the experiments, read-out: IC90 values, MEAN
  IC90: 2.3 nM
NF54^WT parasites; Plasmodium falciparum, NF54, NF54WT, 10% human serum, read-out: IC50 ± SEM
  IC50: 0.8 ± 0.1 nM
NF54^WT parasites; Plasmodium falciparum, NF54, read-out: Dihydroartemisinin IC50 values, NF54WT, MEAN
  IC50: 0.84 nM
NF54^WT parasites; read-out: Dihydroartemisinin IC50 values, NF54WT, single experiments
  IC50: 0.78 nM and 0.71 nM and 0.86 nM
